Legend:
[1] = tested on: NMDA-induced death; assay: NMDA test (25 mg/kg i.v.), protection against NMDA-induced death; type: in vivo, male NMRI mice; details: Mus musculus; for ED50: 1 h, oral, one hour before NMDA 25 mg/kg i.v., dose protecting 50% of animals against NMDA-induced death; for responders at 5 mg/kg: 5 mg/kg oral, 1 hr before test, NMDA 25 mg/kg i.v., proportion of surviving animals, read-out: Protective action
Description: The following method was used to determine the neuroprotective/anticonvulsive activity of the compounds according to the invention of the general formula I: […]
In order to evaluate the neuroprotective activity, NMDA was administered intravenously in an amount of 25 mg/kg/10 ml to male NMRI mice having a body weight of 20-25 g. As a result of this administration the animals suffered clonic and in some cases also tonic convulsions, leading to death. Prevention of death is used as a criterion of the effectiveness of the investigated compounds.
All experimental animals had free access to food and water before the experiments. The test and reference substances were administered orally as a suspension in 0.2% agar or water, by means of a pharyngeal probe, in some cases with the aid of solubilizers such as PEG-400. Control animals received the same volume of solvents, if necessary with the addition of solubilizers. One hour after administration of the substance NMDA was administered intravenously and the occurrence of convulsions was observed.
The results of the tests carried out (NMDA 25 mg i.v.) at doses of 5 mg of the compounds according to the invention per kg body weight compared to known NMDA antagonists are given in Table 1. The percentage proportion of the surviving animals is given as % effect.
Table 1 also gives as ED-50 values those doses of the substances according to the invention and other NMDA antagonists, which in the NMDA i.v. test (25 mg/kg) one hour after administration protected 50% of the animals against NMDA-induced death.
The ED-50 values were determined according to the method of Lichtfield and Wilcoxon, J. Pharmacol. exp. Therapeut. 96, 99 (1949), in each case using 4-5 groups of animals each containing 10 animals per dose stage.

[2] = tested on: NMDA-induced death; assay: as above; type: in vivo, male NMRI mice; details: Mus musculus, 1 hr before test, NMDA 25 mg/kg i.v., proportion of surviving animals, read-out: Protective action; for responders at 20 mg/kg: 20 mg/kg oral; for responders at 50 mg/kg: 50 mg/kg oral

SMILES | ED50 [1] | responders at 5 mg/kg [1] | responders at 20 mg/kg [2] | responders at 50 mg/kg [2]
CCS(=O)(=O)Oc1cc2c(C)c(CCN3CCN(c4ccccc4OC)CC3)c(=O)oc2cc1OC [Example 9, 6-(ethanesulphonyloxy)-7-methoxy-3-(2-[4-(2-methoxyphenyl)-1-piperazinyl]-ethyl)-4-methyl-2H-1-benzopyran-2-one] | 0.6 mg/kg | 100% | – | –
CCOc1cc(OCC)c2c(C)c(CCN3CCN(c4ccccc4OC)CC3)c(=O)oc2c1 [Example 18, 5,7-diethoxy-3-{2-[4-(2-methoxyphenyl)-1-piperazinyl]ethyl}-4-methyl-2H-1-benzopyran-2-one] | 0.6 mg/kg | 100% | – | –
COc1cc2oc(=O)c(CCN3CCN(c4ccccc4OC)CC3)c(C)c2cc1OC(C)C [Example 8, 7-methoxy-3-{2-[4-(2-methoxyphenyl)-1-piperazinyl]ethyl}-4-methyl-6-(1-methylethoxy)-2H-1-benzopyran-2-one] | 0.7 mg/kg | 100% | – | –
COc1cc(OC)c2c(C)c(CCN3CCN(c4ccccc4)CC3)c(=O)oc2c1 [Example 15, 5,7-dimethoxy-4-methyl-3-[2-(4-phenyl-1-piperazinyl)ethyl]-2H-1-benzopyran-2-one] | 1 mg/kg | 87.5% | – | –
COc1cc(OC)c2c(C)c(CCN3CCN(c4ccccc4C)CC3)c(=O)oc2c1 [Example 21, 5,7-dimethoxy-4-methyl-3-{2-[4-(2-methylphenyl)-1-piperazinyl]ethyl}-2H-1-benzopyran-2-one] | – | 87.5% | – | –
COc1cc2oc(=O)c(CCN3CCN(c4ccccc4OC)CC3)c(C)c2cc1OC [Example 4, 6,7-dimethoxy-3-{2-[4-(2-methoxyphenyl)-1-piperazinyl)ethyl]-4-methyl-2H-1-benzopyran-2-one] | 0.4 mg/kg | 100% | – | –
COc1ccccc1N1CCN(CCc2c(C)c3ccc(OC)c(OC)c3oc2=O)CC1 [Example 10, 7,8-dimethoxy-3-{2-[4-(2-methoxyphenyl)-1-piperazinyl]ethyl}-4-methyl-2H-1-benzopyran-2-one] | 0.4 mg/kg | 100% | – | –
COc1cc2oc(=O)c(CCN3CCC(c4ccccc4)CC3)c(C)c2c(OC)c1OC [Example 12, 5,6,7-trimethoxy-4-methyl-3-[2-(4-phenyl-1-piperidinyl)ethyl]-2H-1-benzopyran-2-one] | 3.4 mg/kg | 75% | – | –
CCOc1cc2c(C)c(CCN3CCN(c4ccccc4OC)CC3)c(=O)oc2cc1OC [Example 7, 6-ethoxy-7-methoxy-3-{2-[4-(2-methoxyphenyl)-1-piperazinyl]ethyl}-4-methyl-2H-1-benzopyran-2-one] | 0.4 mg/kg | 100% | – | –
CCOc1ccc2c(C)c(CCN3CCN(c4ccccc4OC)CC3)c(=O)oc2c1OCC [Example 11, 7,8-diethoxy-3-{2-[4-(2-methoxyphenyl)-1-piperazinyl]ethyl}-4-methyl-2H-1-benzopyran-2-one] | – | 100% | – | –
COc1cc(OC)c2c(C)c(CCN3CCC(O)(c4ccccc4)CC3)c(=O)oc2c1 [Example 24, 3-[2-(4-hydroxy-4-phenyl-1-piperidinyl)ethyl]-5,7-dimethoxy-4-methyl-2H-1-benzopyran-2-one] | – | 25% | – | –
COc1cc(OC)c2c(C)c(CCN3CCN(c4cccc(C(F)(F)F)c4)CC3)c(=O)oc2c1 [Example 23, 5,7-dimethoxy-4-methyl-3-{2-[4-(3-trifluoromethylphenyl)-1-piperazinyl]ethyl}-2H-1-benzopyran-2-one] | – | 25% | – | –
COc1cc2oc(=O)c(CCN3CCN(c4ccccc4)CC3)c(C)c2cc1OC [Example 3, 6,7-dimethoxy-4-methyl-3-[2-(4-phenyl-1-piperazinyl)ethyl]-2H-1-benzopyran-2-one] | – | 50% | – | –
COc1ccc(CCN(C)CCCC(C#N)(c2ccc(OC)c(OC)c2)C(C)C)cc1OC (stereo not shown) [Verapamil, reference compound] | 17.3 mg/kg | – | 87.5% | –
COc1cc2oc(=O)c(CCN3CCN(c4ccccc4)CC3)c(C)c2c(OC)c1OC [Example 13, 5,6,7-trimethoxy-4-methyl-3-[2-(4-phenyl-1-piperazinyl)ethyl]-2H-1-benzopyran-2-one] | – | 62.5% | – | –
COc1cc(OC)c2c(C)c(CCN3CCN(c4ccccc4O)CC3)c(=O)oc2c1 [Example 25, 3-{2-[4-(2-hydroxyphenyl)-1-piperazinyl]-ethyl}-5,7-dimethoxy-4-methyl-2H-1-benzopyran-2-one] | – | 87.5% | – | –
COc1ccc2c(c1)[C@]13CCCC[C@@H]1[C@H](C2)N(C)CC3 [Dextromethorphan, reference compound] | 66.7 mg/kg | – | – | 50%
COc1cc(OC)c2c(C)c(CCN3CCN(c4ccccc4F)CC3)c(=O)oc2c1 [Example 22, 3-{2-[4-(2-fluorophenyl)-1-piperazinyl]ethyl}-5,7-dimethoxy-4-methyl-2H-1-benzopyran-2-one] | – | 100% | – | –
COc1ccc2c(C)c(CCN3CCN(c4ccccc4OC)CC3)c(=O)oc2c1 [Example 1, 7-methoxy-3-{2-[4-(2-methoxyphenyl)-1-piperazinyl]ethyl}-4-methyl-2H-1-benzopyran-2-one] | 0.8 mg/kg | 87.5% | – | –
CNC1(c2ccccc2Cl)CCCCC1=O (stereo not shown) [Ketamin] | – | – | 0% | –
COc1ccccc1N1CCN(CCc2c(C)c3c(O)cc(O)cc3oc2=O)CC1 [Example 16, 5,7-dihydroxy-3-{2-[4-(2-methoxyphenyl)-1-piperazinyl]ethyl}-4-methyl-2H-1-benzopyran-2-one] | 0.2 mg/kg | 100% | – | –
CCOc1ccccc1N1CCN(CCc2c(C)c3c(OC)cc(OC)cc3oc2=O)CC1 [Example 20, 3-{2-[4-(2-ethoxyphenyl)-1-piperazinyl]ethyl}-5,7-dimethoxy-4-methyl-2H-1-benzopyran-2-one] | – | 100% | – | –
COCCOC(=O)C1=C(C)NC(C)=C(C(=O)OC(C)C)C1c1cccc([N+](=O)[O-])c1 (stereo not shown) [Nimodipin, reference compound] | 18.5 mg/kg | – | 87.5% | –
COc1cc(OC)c2c(C)c(CCN3CCN(c4ccccc4OC)CC3)c(=O)oc2c1 [Example 17, 5,7-dimethoxy-3-{2-[4-(2-methoxyphenyl)-1-piperazinyl]ethyl}-4-methyl-2H-1-benzopyran-2-one] | 0.2 mg/kg | 100% | – | –
COc1cc2oc(=O)c(CCN3CCN(c4ccccc4OC)CC3)c(C)c2cc1O [Example 2, 6-hydroxy-7-methoxy-3-{2-[4-(2-methoxyphenyl)-1-piperazinyl]ethyl}-4-methyl-2H-1-benzopyran-2-one] | 0.2 mg/kg | 100% | – | –
CCOc1cc2c(C)c(CCN3CCN(c4ccccc4)CC3)c(=O)oc2cc1OC [Example 6, 6-ethoxy-7-methoxy-4-methyl-3-[2-(4-phenyl-1-piperazinyl)ethyl]-2H-1-benzopyran-2-one] | 2 mg/kg | 87.5% | – | –
CCOc1cc2c(C)c(CCN3CCC(c4ccccc4)CC3)c(=O)oc2cc1OC [Example 5, 6-ethoxy-7-methoxy-4-methyl-3-[2-(4-phenyl-1-piperidinyl)ethyl]-2H-1-benzopyran-2-one] | 4.1 mg/kg | 75% | – | –
CCCOc1cc(OCCC)c2c(C)c(CCN3CCN(c4ccccc4OC)CC3)c(=O)oc2c1 [Example 19, 3-{2-[4-(2-methoxyphenyl)-1-piperazinyl]ethyl}-4-methyl-5,7-dipropoxy-2H-1-benzopyran-2-one] | – | 100% | – | –
Fc1ccc(C(c2ccc(F)cc2)N2CCN(C/C=C/c3ccccc3)CC2)cc1 [Flunarizin, reference compound] | 22.8 mg/kg | – | – | 100%
COc1cc(OC)c2c(C)c(CCN3CCC(c4ccccc4)CC3)c(=O)oc2c1 [Example 14, 5,7-dimethoxy-4-methyl-3-[2-(4-phenyl-1-piperidinyl)ethyl]-2H-1-benzopyran-2-one] | 2.2 mg/kg | 87.5% | – | –

Reference: patent publication US5550129A, “Benzopyranones, processes for their preparation and their use” (Willmar Schwabe GmbH & Co., priority 1992, dated 1996)
